Experimental data reported in patent US7122693B2, “Acetaldehyde acetal compounds, their synthesis, and uses thereof” (Shire BioChem Inc., priority 1988, dated 2006).
Where “and” joins values, the source holds several entries; their conditions need not be identical. Equal values may be shown once. Read-outs that look alike come from different tables or passages of the source.

Experiments:
Type in all cases: cell-based
HIV-1 in MT-4 cells [1] = experiment: Viable cell counts, cytolytic effect of HIV-1 on MT-4 cells; conditions: for viability at 2 µg/mL: Human immunodeficiency virus 1, MT4, 144 h
Description: (§1) In vitro testing was conducted on several of the compounds of this invention to determine their inhibitory properties. The concentrations reported are μg/ml in the incubation media which affect the susceptibility of a continuous line of T-cells developed at the Lady Davis Institute for Medical Research (Montreal) by Dr. Mark A. Wainberg toward infection by HIV-1 following a protocol similar to that of H. Mitsuya and S. Broder, “Inhibition of the in vitro infectivity and cytopathic effect of human T-lymphotropic virus type III/lymphadenopathy-associated virus (HTLV-III/LAV) by 2′3′-dideoxynucleosides”, Proc. Natl. Acad. Sci. USA, 83, pp. 1911–15 (1986). Protection of the cell line from infection was monitored by staining with monoclonal antibodies against viral proteins in the standard manner (Table 1). In all experiments, comparisons were made with the drug AZT as the control. In order to confirm the results, the drug effects were monitored by measuring reverse transcriptase (RT) activity in the U-937 line of human monocytic cells as assayed in the usual manner with tritiated thymidine triphosphate (TTP) (Table 2). The drug effects on cell viability as measured by the well-know cytolytic effects of HIV-1 on the MT-4 cell line was evaluated in the accepted manner (Table 1).

HIV-1 in MT-4 cells [2] = experiment: Reverse transcriptase assay in MT-4 cells; conditions: 2 μg/ml
HIV-1 in H-9 cells [3] = experiment: Reverse transcriptase assay, HIV-1 production in H-9 cells (Table 2); conditions: 2 μg/ml
HIV-1 in MT-4 cells [4] = experiment: P-24 immunofluorescence in MT-4 cells (staining with monoclonal antibodies against viral proteins); conditions: 2 μg/ml
Description: as §1

HIV-1 in H-9 cells [5] = experiment: RT activity, HIV-1 production in H-9 cells (Table 3)
[6] = MT-4 cells, HIV-1, 6 days in culture, 2 μg/ml of compound, read-out: Cell Viability %
[7] = 7 days in culture (row between 14 and 21)
[8] = MT-4 cells, HIV-1, 6 days in culture, 2 μg/ml of compound

Nc1ccn(C2C[S+]([O-])C(CO)O2)c(=O)n1 (single isomer, unassigned) [cis-XII (b), Cis-2-hydroxymethyl-5-(cytosin-1′-yl)-3-oxo-1,3-oxathiolane]
viability at 2 µg/mL (HIV-1 in MT-4 cells [1]; [6]): 14%

Cc1cn(C2CC(N=[N+]=[N-])C(CO)O2)c(=O)[nH]c1=O (centres unmarked) [AZT, 3′-azido-2′,3′-dideoxythymidine, reference compound]
RT Activity (CPM × 1000)/ml (HIV-1 in MT-4 cells [2]; 3 days in culture): 1.564 (CPM × 1000)/ml | RT Activity (CPM × 1000)/ml (HIV-1 in MT-4 cells [2]; 6 days in culture): 1.748 (CPM × 1000)/ml | RT Activity (CPM × 1000)/ml (HIV-1 in H-9 cells [3]; 5 days in culture): 3.346 (CPM × 1000)/ml | RT Activity (CPM × 1000)/ml (HIV-1 in H-9 cells [3]; [7]): 2.997 (CPM × 1000)/ml | RT Activity (CPM × 1000)/ml (HIV-1 in H-9 cells [3]; 8 days in culture): 3.414 (CPM × 1000)/ml | RT Activity (CPM × 1000)/ml (HIV-1 in H-9 cells [3]; 11 days in culture): 2.918 (CPM × 1000)/ml | RT Activity (CPM × 1000)/ml (HIV-1 in H-9 cells [3]; 14 days in culture): 8.320 (CPM × 1000)/ml | RT Activity (CPM × 1000)/ml (HIV-1 in H-9 cells [3]; 21 days in culture): 3.111 (CPM × 1000)/ml | RT Activity (CPM × 1000)/ml (HIV-1 in H-9 cells [3]; 25 days in culture): 15.88 (CPM × 1000)/ml | RT Activity (CPM × 1000)/ml (HIV-1 in H-9 cells [3]; 29 days in culture): 32.08 (CPM × 1000)/ml | RT Activity (CPM × 1000)/ml (HIV-1 in H-9 cells [3]; 33 days in culture): 612.2 (CPM × 1000)/ml | RT Activity (CPM × 1000)/ml (HIV-1 in H-9 cells [3]; 37 days in culture): 878.2 (CPM × 1000)/ml | RT Activity (CPM × 1000)/ml (HIV-1 in H-9 cells [3]; 41 days in culture): 994.0 (CPM × 1000)/ml | RT Activity (CPM × 1000)/ml (HIV-1 in H-9 cells [3]; 45 days in culture): 32.91 (CPM × 1000)/ml | % Immunofluorescent Cells (P-24) (HIV-1 in MT-4 cells [4]; 3 days in culture): 1.0% | % Immunofluorescent Cells (P-24) (HIV-1 in MT-4 cells [4]; 6 days in culture): 1.0% | RT activity (cpm) after 8 days (HIV-1 in H-9 cells [5]; inhibitor 20 μM): 633 cpm and 587 cpm | RT activity (cpm) after 26 days (HIV-1 in H-9 cells [5]; inhibitor 20 μM): 821 cpm and 679 cpm | viability at 2 µg/mL (HIV-1 in MT-4 cells [1]; read-out: Cell Viability %, MT-4 cells, HIV-1, 6 days in culture, 2 μg/ml of compound): 88.6%

CN(C)C=Nc1ccn(C2CSC(CO)O2)c(=O)n1 (stereo not drawn) [cis-LIII, Cis-2-hydroxymethyl-5-(N-dimethylaminomethylenecytosin-1′-yl)-1,3-oxathiolane]
viability at 2 µg/mL (HIV-1 in MT-4 cells [1]; [6]): 18%

O=c1[nH]cnc2c1ncn2C1CSC(CO)O1 (stereo not drawn) [cis-LVI, Cis-2-hydroxymethyl-5-(6′-hydroxypurin-N-9′-yl)-1,3-oxathiolane]
viability at 2 µg/mL (HIV-1 in MT-4 cells [1]; [6]): 11%

Nc1ccn(C2CSC(CO)O2)c(=O)n1 (stereo not drawn) [cis-XI, Cis-2-hydroxymethyl-5-(cytosin-1′-yl)-1,3-oxathiolane]
RT Activity (CPM × 1000)/ml (HIV-1 in MT-4 cells [2]; 3 days in culture): 2.381 (CPM × 1000)/ml | RT Activity (CPM × 1000)/ml (HIV-1 in MT-4 cells [2]; 6 days in culture): 2.301 (CPM × 1000)/ml | RT Activity (CPM × 1000)/ml (HIV-1 in H-9 cells [3]; 5 days in culture): 3.077 (CPM × 1000)/ml | RT Activity (CPM × 1000)/ml (HIV-1 in H-9 cells [3]; [7]): 2.399 (CPM × 1000)/ml | RT Activity (CPM × 1000)/ml (HIV-1 in H-9 cells [3]; 8 days in culture): 5.853 (CPM × 1000)/ml | RT Activity (CPM × 1000)/ml (HIV-1 in H-9 cells [3]; 11 days in culture): 3.560 (CPM × 1000)/ml | RT Activity (CPM × 1000)/ml (HIV-1 in H-9 cells [3]; 14 days in culture): 2.872 (CPM × 1000)/ml | RT Activity (CPM × 1000)/ml (HIV-1 in H-9 cells [3]; 21 days in culture): 2.907 (CPM × 1000)/ml | RT Activity (CPM × 1000)/ml (HIV-1 in H-9 cells [3]; 25 days in culture): 4.020 (CPM × 1000)/ml | RT Activity (CPM × 1000)/ml (HIV-1 in H-9 cells [3]; 29 days in culture): 3.756 (CPM × 1000)/ml | RT Activity (CPM × 1000)/ml (HIV-1 in H-9 cells [3]; 33 days in culture): 3.803 (CPM × 1000)/ml | RT Activity (CPM × 1000)/ml (HIV-1 in H-9 cells [3]; 37 days in culture): 4.193 (CPM × 1000)/ml | RT Activity (CPM × 1000)/ml (HIV-1 in H-9 cells [3]; 41 days in culture): 4.515 (CPM × 1000)/ml | RT Activity (CPM × 1000)/ml (HIV-1 in H-9 cells [3]; 45 days in culture): 3.441 (CPM × 1000)/ml | % Immunofluorescent Cells (P-24) (HIV-1 in MT-4 cells [4]; 3 days in culture): 1.0% | % Immunofluorescent Cells (P-24) (HIV-1 in MT-4 cells [4]; 6 days in culture): 7.6% | Cell Viability % (HIV-1 in MT-4 cells [1]; [8]): 87.4%

O=c1ccn(C2CSC(CO)O2)c(=O)[nH]1 (stereo not drawn) [cis-XVIII, Cis-2-hydroxymethyl-5-(uracil-N-1′-yl)-1,3-oxathiolane]
viability at 2 µg/mL (HIV-1 in MT-4 cells [1]; [6]): 14%

Nc1ccn(C2COC(CO)O2)c(=O)n1 (stereo not drawn) [trans-(XXXVI), trans-2-hydromethyl-4-(cytosin-1′-yl)-1,3-dioxolane]
RT activity (cpm) after 8 days (HIV-1 in H-9 cells [5]; inhibitor 10 μM): 4,608 cpm | RT activity (cpm) after 12 days (HIV-1 in H-9 cells [5]; inhibitor 10 μM): 83,462 cpm | RT activity (cpm) after 26 days (HIV-1 in H-9 cells [5]; inhibitor 10 μM): 312,478 cpm | RT activity (cpm) after 8 days (HIV-1 in H-9 cells [5]; inhibitor 50 μM): 1,319 cpm | RT activity (cpm) after 12 days (HIV-1 in H-9 cells [5]; inhibitor 50 μM): 758 cpm | RT activity (cpm) after 26 days (HIV-1 in H-9 cells [5]; inhibitor 50 μM): 1,732 cpm

Nc1ccn(C2CSC(CO)O2)c(=O)n1 (stereo not drawn) [trans-XI, trans-2-hydroxymethyl-5-(cytosin-1′-yl)-1,3-oxathiolane]
Cell Viability % (HIV-1 in MT-4 cells [1]; [8]): 24%
